Data published in the supplement of paper PMC10307832.

Each cell line was assayed with CC(C)N(CCCNC(=O)Nc1ccc(C(C)(C)C)cc1)C[C@H]1O[C@@H](n2ccc3c(N)ncnc32)[C@H](O)[C@@H]1O + CC(=O)c1c(C)c2cnc(Nc3ccc(N4CCNCC4)cn3)nc2n(C2CCCC2)c1=O [Palbociclib] (partner 0.5 µM) (assay: relative viability (nuclei count vs DMSO), 5 days (fraction); higher = more cells survive). Conditions: first compound 0.08 µM.
In short: (§1)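 Lung cancer cell lines in 1536-well plates got either a single drug or a fixed anchor-drug dose together with five library-drug doses (not always all listed) in √10 steps, by pin tool, on the day after seeding. Nuclei were counted after 5 days, and relative viability is the treated-to-vehicle ratio of nuclei counts. Values are medians of duplicate plates.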

Cell Line	relative viability
LC-2-ad	0.496
NCI-H1944	0.322
NCI-H1975	0.557
SW 1573	0.377
ABC-1	0.665
NCI-H358	0.121
NCI-H727	0.694
SK-LU-1	0.431

Same assay, conditions: first compound 0.253 µM

Cell Line	relative viability
LC-2-ad	0.463
NCI-H1944	0.302
NCI-H1975	0.486
SW 1573	0.431
ABC-1	0.868
NCI-H358	0.127
NCI-H727	0.578
SK-LU-1	0.42

Same assay, conditions: first compound 0.8 µM

Cell Line	relative viability
LC-2-ad	0.495
NCI-H1944	0.348
NCI-H1975	0.205
SW 1573	0.419
NCI-H358	0.143
NCI-H727	0.769
SK-LU-1	0.332

Same assay, conditions: first compound 2.53 µM

Cell Line	relative viability
LC-2-ad	0.51
NCI-H1944	0.329
NCI-H1975	0.499
SW 1573	0.401
ABC-1	0.763
NCI-H358	0.135
NCI-H727	0.82
SK-LU-1	0.389

Same assay, conditions: first compound 8 µM

Cell Line	relative viability
LC-2-ad	0.484
NCI-H1944	0.353
NCI-H1975	0.497
SW 1573	0.336
ABC-1	0.655
NCI-H358	0.132
NCI-H727	0.62
SK-LU-1	0.36

What follows are cell lines tested with CC(C)N(CCCNC(=O)Nc1ccc(C(C)(C)C)cc1)C[C@H]1O[C@@H](n2ccc3c(N)ncnc32)[C@H](O)[C@@H]1O + O=C(c1cc(Cc2n[nH]c(=O)c3ccccc23)ccc1F)N1CCN(C(=O)C2CC2)CC1 [Olaparib] (partner 8 µM) in the same assay as above. Conditions: first compound 0.08 µM.
In short: as §1

Cell Line	relative viability
LC-2-ad	0.67
NCI-H1944	0.416
NCI-H1975	0.745
SW 1573	0.464
ABC-1	0.69
NCI-H358	0.593
NCI-H727	0.587
SK-LU-1	0.424

Same assay, conditions: first compound 0.253 µM

Cell Line	relative viability
LC-2-ad	0.717
NCI-H1944	0.409
NCI-H1975	0.82
ABC-1	0.745
NCI-H358	0.605
NCI-H727	0.676
SK-LU-1	0.448

Same assay, conditions: first compound 0.8 µM

Cell Line	relative viability
LC-2-ad	0.715
NCI-H1944	0.413
NCI-H1975	0.68
SW 1573	0.517
NCI-H358	0.565
NCI-H727	0.673
SK-LU-1	0.516

Same assay, conditions: first compound 2.53 µM

Cell Line	relative viability
LC-2-ad	0.699
NCI-H1944	0.41
NCI-H1975	0.649
SW 1573	0.441
ABC-1	1.47
NCI-H358	0.562
NCI-H727	0.759
SK-LU-1	0.552

Same assay, conditions: first compound 8 µM

Cell Line	relative viability
LC-2-ad	0.626
NCI-H1944	0.403
NCI-H1975	0.538
SW 1573	0.53
ABC-1	0.8
NCI-H358	0.542
NCI-H727	0.647
SK-LU-1	0.469
